# Data reported in patent US20090105305A1, “Therapeutic Agents - 550” (AstraZeneca AB, priority 2006, published 2009).
# Target: T1, human Fatty Acid Synthase (Homo sapiens, UniProt P49327)
# T1 construct: made in house
# Assay: Human FAS enzyme assay (decrease in NADPH fluorescence)
# Format: biochemical
# Details: % inhibition at a concentration of 100 micromolar
# Description: The compounds of the present invention are Fatty Acid Synthase inhibitors. […] Human and Rat FAS Enzyme Assay.
# Fatty acid synthase is an enzyme complex that harbours seven enzymatic activities catalysing the reductive synthesis of long chain fatty acids from acetyl CoA and malonyl CoA to palmitate. When acetyl CoA and malonyl CoA are forming palmitate NADPH is consumed forming NADP. Since NADPH is fluorescent but not NADP the reaction can be measured by analysing the decrease in fluorescence.
# Compounds were added to a black 384 well plate (Matrix) in a volume of 5 μl consisting of 20% DMSO and 80% Tris buffer pH 7.5, at a top concentration of 1 mM. NADPH, 30 μl of 166.6 μM, formulated in assay buffer (0.1M Tris ph7.5, 0.1 mM EDTA, 1 mM glutathione, 0.05% BSA), was then added to all of the wells of the plate. Fatty acid synthase Human or rat enzyme (0.4 μg, produced in house), dissolved in 20 mM Tris/HCl pH 7.5, 5 mM BOG, 1 mM TCEP, 10% glycerol, 1 mM EDTA, 150 mM NaCl, was then added to the plate in a volume of […]. Enzyme was added to all but the last two columns of the plate, to which, 10 μl of assay buffer was added (0.1M Tris ph7.5, 0.1 mM EDTA, 1 mM glutathione, 0.05% BSA) to provide a no enzyme assay control. Following a 15-minute incubation period, at room temperature, the plates were read on an Envision plate reader using 340 nm excitation and 460 nm emission filters. This served as a time zero background read. Substrates (an equal mix of both malonyl and acetyl CoA) were then added to the plates in a total volume of 5 μl. The concentrations of malonyl and acetyl CoA in the mixture were 500 μM and 150 μM respectively. Both were prepared as 10 mM stock solutions in distilled water and were subsequently diluted to working concentrations in assay buffer. Plates were then incubated for a further 60 minutes, at room temperature, before being read again on the Envision reader using the same parameters as previously used. The data was analysed by subtracting the background time zero data from that generated following the final 60 minute incubate and the percent inhibition compared to the maximum and minimum assay controls was determined. Sigmoid curves were fitted using Origin 7.5 Client software and IC50 values were determined.
# T1 sequence (P49327 whole entry): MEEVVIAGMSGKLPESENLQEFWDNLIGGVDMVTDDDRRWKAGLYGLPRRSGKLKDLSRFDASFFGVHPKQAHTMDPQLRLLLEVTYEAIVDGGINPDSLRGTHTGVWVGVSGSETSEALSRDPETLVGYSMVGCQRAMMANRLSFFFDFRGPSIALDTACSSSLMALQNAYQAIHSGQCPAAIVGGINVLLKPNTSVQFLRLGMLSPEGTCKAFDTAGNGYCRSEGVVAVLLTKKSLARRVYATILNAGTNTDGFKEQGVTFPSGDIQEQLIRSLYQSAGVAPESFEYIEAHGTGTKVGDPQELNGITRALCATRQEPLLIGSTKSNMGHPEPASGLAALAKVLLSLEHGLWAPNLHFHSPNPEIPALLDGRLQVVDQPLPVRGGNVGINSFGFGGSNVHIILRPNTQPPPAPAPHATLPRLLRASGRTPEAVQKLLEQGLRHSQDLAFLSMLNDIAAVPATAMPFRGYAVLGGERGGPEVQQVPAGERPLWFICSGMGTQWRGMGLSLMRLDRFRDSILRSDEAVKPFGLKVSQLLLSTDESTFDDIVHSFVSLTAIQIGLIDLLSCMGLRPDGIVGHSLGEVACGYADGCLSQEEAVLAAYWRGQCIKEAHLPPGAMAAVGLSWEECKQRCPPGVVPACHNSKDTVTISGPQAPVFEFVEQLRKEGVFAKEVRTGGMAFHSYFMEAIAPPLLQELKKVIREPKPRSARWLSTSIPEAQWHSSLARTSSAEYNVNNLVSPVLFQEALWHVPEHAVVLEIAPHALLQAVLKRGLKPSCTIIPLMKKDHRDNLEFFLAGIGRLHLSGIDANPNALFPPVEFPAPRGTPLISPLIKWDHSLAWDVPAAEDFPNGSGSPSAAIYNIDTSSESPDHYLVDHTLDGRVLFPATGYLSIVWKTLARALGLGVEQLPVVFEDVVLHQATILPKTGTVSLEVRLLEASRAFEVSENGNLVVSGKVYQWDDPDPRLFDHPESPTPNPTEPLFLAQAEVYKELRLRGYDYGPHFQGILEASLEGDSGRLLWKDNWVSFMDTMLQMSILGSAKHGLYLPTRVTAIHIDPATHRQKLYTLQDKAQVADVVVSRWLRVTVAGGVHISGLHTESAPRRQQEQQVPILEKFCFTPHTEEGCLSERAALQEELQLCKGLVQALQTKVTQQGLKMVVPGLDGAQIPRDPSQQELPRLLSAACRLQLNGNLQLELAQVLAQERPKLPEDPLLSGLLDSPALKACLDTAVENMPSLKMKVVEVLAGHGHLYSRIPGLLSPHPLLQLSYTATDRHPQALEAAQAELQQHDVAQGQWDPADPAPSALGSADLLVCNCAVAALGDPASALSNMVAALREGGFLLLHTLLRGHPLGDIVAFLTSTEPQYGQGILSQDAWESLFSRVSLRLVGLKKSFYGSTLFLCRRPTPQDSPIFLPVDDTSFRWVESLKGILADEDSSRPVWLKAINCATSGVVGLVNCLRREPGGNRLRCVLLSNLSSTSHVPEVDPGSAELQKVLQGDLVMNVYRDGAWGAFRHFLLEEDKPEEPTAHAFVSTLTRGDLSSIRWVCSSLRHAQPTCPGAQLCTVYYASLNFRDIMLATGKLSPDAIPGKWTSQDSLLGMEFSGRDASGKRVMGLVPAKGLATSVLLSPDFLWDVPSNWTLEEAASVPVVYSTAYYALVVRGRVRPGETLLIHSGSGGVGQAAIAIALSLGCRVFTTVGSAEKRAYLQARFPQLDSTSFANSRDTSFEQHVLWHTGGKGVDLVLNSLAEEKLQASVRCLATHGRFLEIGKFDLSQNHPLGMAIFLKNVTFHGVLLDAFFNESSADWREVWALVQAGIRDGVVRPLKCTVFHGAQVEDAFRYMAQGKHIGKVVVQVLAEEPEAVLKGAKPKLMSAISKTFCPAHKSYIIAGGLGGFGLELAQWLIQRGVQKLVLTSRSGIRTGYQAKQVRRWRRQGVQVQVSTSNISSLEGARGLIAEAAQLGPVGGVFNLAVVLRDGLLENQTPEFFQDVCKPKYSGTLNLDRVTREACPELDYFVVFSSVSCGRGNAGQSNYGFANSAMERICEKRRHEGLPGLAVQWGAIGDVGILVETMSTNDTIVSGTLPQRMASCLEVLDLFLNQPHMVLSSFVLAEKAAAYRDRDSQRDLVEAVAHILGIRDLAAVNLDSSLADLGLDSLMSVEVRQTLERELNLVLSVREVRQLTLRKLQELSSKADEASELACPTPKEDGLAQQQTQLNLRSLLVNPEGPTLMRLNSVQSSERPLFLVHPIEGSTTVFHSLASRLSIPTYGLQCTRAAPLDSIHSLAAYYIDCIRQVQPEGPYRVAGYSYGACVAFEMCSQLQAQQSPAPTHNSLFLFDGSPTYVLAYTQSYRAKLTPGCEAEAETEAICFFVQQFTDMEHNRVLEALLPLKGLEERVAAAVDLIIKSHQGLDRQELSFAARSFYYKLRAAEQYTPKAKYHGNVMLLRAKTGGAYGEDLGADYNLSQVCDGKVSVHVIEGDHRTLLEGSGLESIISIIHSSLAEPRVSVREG
row,inhibition at 100 µM [%],SMILES
1,93,"Cc1ccc(C(=O)N2CCC(c3ccc(C#N)cc3)CC2)cc1NS(=O)(=O)CC1CCCCC1 [Example 15, N-[5-[4-(4-cyanophenyl)piperidine-1-carbonyl]-2-methyl-phenyl]-1-cyclohexyl-methanesulfonamide]"
2,95,"Cc1ccc(C(=O)N2CCC(c3ccc(C#N)cc3)CC2)cc1NS(=O)(=O)CC1CCCC1 [Example 16, N-[5-[4-(4-cyanophenyl)piperidine-1-carbonyl]-2-methyl-phenyl]-1-cyclopentyl-methanesulfonamide]"
3,94,"Cc1ccc(C(=O)N2CCC(c3ccc(C#N)cc3)CC2)cc1NS(=O)(=O)C1CCCCC1 [Example 17, N-[5-[4-(4-cyanophenyl)piperidine-1-carbonyl]-2-methyl-phenyl]cyclohexanesulfonamide]"
4,96,"Cc1ccc(C(=O)N2CCC(c3ccc(C#N)cc3)CC2)cc1NS(=O)(=O)c1ccc(Cl)s1 [Example 19, 5-chloro-N-[5-[4-(4-cyanophenyl)piperidine-1-carbonyl]-2-methyl-phenyl]thiophene-2-sulfonamide]"
5,85,"Cc1ccc(C(=O)N2CCC(c3ccc(C#N)cc3)CC2)cc1NS(=O)(=O)c1ccccc1C#N [Example 20, 2-cyano-N-[5-[4-(4-cyanophenyl)piperidine-1-carbonyl]-2-methyl-phenyl]benzenesulfonamide]"
6,90,"Cc1ccc(C(=O)N2CCC(c3ccc(C#N)cc3)CC2)cc1NS(=O)(=O)c1cccc(C#N)c1 [Example 21, 3-cyano-N-[5-[4-(4-cyanophenyl)piperidine-1-carbonyl]-2-methyl-phenyl]benzenesulfonamide]"
7,95,"CC(=O)Nc1ccc(S(=O)(=O)Nc2cc(C(=O)N3CCC(c4ccc(C#N)cc4)CC3)ccc2C)cc1 [Example 22, N-[4-[[5-[4-(4-cyanophenyl)piperidine-1-carbonyl]-2-methyl-phenyl]sulfamoyl]phenyl]acetamide]"
8,89,"Cc1ccc(C(=O)N2CCC(c3ccc(C#N)cc3)CC2)cc1NS(=O)(=O)c1ccc(C#N)cc1 [Example 23, 4-cyano-N-[5-[4-(4-cyanophenyl)piperidine-1-carbonyl]-2-methyl-phenyl]benzenesulfonamide]"
9,87,"COc1ccccc1S(=O)(=O)Nc1cc(C(=O)N2CCC(c3ccc(C#N)cc3)CC2)ccc1C [Example 25, N-[5-[4-(4-cyanophenyl)piperidine-1-carbonyl]-2-methyl-phenyl]-2-methoxy-benzenesulfonamide]"
10,94,"Cc1ccc(C(=O)N2CCC(c3ccc(C#N)cc3)CC2)cc1NS(=O)(=O)Cc1ccccc1F [Example 26, N-[5-[4-(4-cyanophenyl)piperidine-1-carbonyl]-2-methyl-phenyl]-1-(2-fluorophenyl)methanesulfonamide]"
11,96,"Cc1ccc(C(=O)N2CCC(c3ccc(C#N)cc3)CC2)cc1NS(=O)(=O)Cc1cccc(F)c1 [Example 27, N-[5-[4-(4-cyanophenyl)piperidine-1-carbonyl]-2-methyl-phenyl]-1-(3-fluorophenyl)methanesulfonamide]"
12,93,"Cc1cc(C)c(C(=O)N2CCC(c3ccc(C#N)cc3)CC2)cc1NS(C)(=O)=O [Example 28, N-[5-[4-(4-cyanophenyl)piperidine-1-carbonyl]-2,4-dimethyl-phenyl]methanesulfonamide]"
13,93,"Cc1cc(C)c(C(=O)N2CCC(c3ccc(C#N)cc3)CC2)cc1NS(=O)(=O)Cc1ccccc1 [Example 29, N-[5-[4-(4-cyanophenyl)piperidine-1-carbonyl]-2,4-dimethyl-phenyl]-1-phenyl-methanesulfonamide]"
14,83,"COc1ccc(NS(=O)(=O)Cc2ccccc2)cc1C(=O)N1CCC(c2ccc(C#N)cc2)CC1 [Example 31, N-[3-[4-(4-cyanophenyl)piperidine-1-carbonyl]-4-methoxy-phenyl]-1-phenyl-methanesulfonamide]"
15,85,"Cc1ccc(NS(=O)(=O)C(C)C)cc1C(=O)N1CCC(c2ccc(C#N)cc2)CC1 [Example 32, N-[3-[4-(4-cyanophenyl)piperidine-1-carbonyl]-4-methyl-phenyl]propane-2-sulfonamide]"
16,91,"CCCS(=O)(=O)Nc1ccc(C)c(C(=O)N2CCC(c3ccc(C#N)cc3)CC2)c1 [Example 33, N-[3-[4-(4-cyanophenyl)piperidine-1-carbonyl]-4-methyl-phenyl]propane-1-sulfonamide]"
17,89,"Cc1ccc(NS(=O)(=O)CCCCl)cc1C(=O)N1CCC(c2ccc(C#N)cc2)CC1 [Example 34, 3-chloro-N-[3-[4-(4-cyanophenyl)piperidine-1-carbonyl]-4-methyl-phenyl]propane-1-sulfonamide]"
18,89,"Cc1ccc(NS(=O)(=O)c2ccccc2)cc1C(=O)N1CCC(c2ccc(C#N)cc2)CC1 [Example 35, N-[3-[4-(4-cyanophenyl)piperidine-1-carbonyl]-4-methyl-phenyl]benzenesulfonamide]"
19,88,"CCS(=O)(=O)Nc1ccc(C)c(C(=O)N2CCC(c3ccc(C#N)cc3)CC2)c1 [Example 36, N-[3-[4-(4-cyanophenyl)piperidine-1-carbonyl]-4-methyl-phenyl]ethanesulfonamide]"
20,91,"CCCCS(=O)(=O)Nc1ccc(C)c(C(=O)N2CCC(c3ccc(C#N)cc3)CC2)c1 [Example 37, N-[3-[4-(4-cyanophenyl)piperidine-1-carbonyl]-4-methyl-phenyl]butane-1-sulfonamide]"
21,83,"COC(=O)CS(=O)(=O)Nc1ccc(C)c(C(=O)N2CCC(c3ccc(C#N)cc3)CC2)c1 [Example 38, methyl 2-[[3-[4-(4-cyanophenyl)piperidine-1-carbonyl]-4-methyl-phenyl]sulfamoyl]acetate]"
22,80,"Cc1ccc(NS(=O)(=O)c2cnoc2C)cc1C(=O)N1CCC(c2ccc(C#N)cc2)CC1 [Example 39, N-[3-[4-(4-cyanophenyl)piperidine-1-carbonyl]-4-methyl-phenyl]-5-methyl-1,2-oxazole-4-sulfonamide]"
23,89,"Cc1ccc(NS(=O)(=O)C2CC2)cc1C(=O)N1CCC(c2ccc(C#N)cc2)CC1 [Example 40, N-[3-[4-(4-cyanophenyl)piperidine-1-carbonyl]-4-methyl-phenyl]cyclopropanesulfonamide]"
24,96,"Cc1ccc(NS(=O)(=O)CC2CCCCC2)cc1C(=O)N1CCC(c2ccc(C#N)cc2)CC1 [Example 41, N-[3-[4-(4-cyanophenyl)piperidine-1-carbonyl]-4-methyl-phenyl]-1-cyclohexyl-methanesulfonamide]"
25,90,"Cc1ccc(NS(=O)(=O)C2CCCCC2)cc1C(=O)N1CCC(c2ccc(C#N)cc2)CC1 [Example 42, N-[3-[4-(4-cyanophenyl)piperidine-1-carbonyl]-4-methyl-phenyl]cyclohexanesulfonamide]"
26,93,"Cc1ccc(NS(=O)(=O)CC2CCCC2)cc1C(=O)N1CCC(c2ccc(C#N)cc2)CC1 [Example 43, N-[3-[4-(4-cyanophenyl)piperidine-1-carbonyl]-4-methyl-phenyl]-1-cyclopentyl-methanesulfonamide]"
27,83,"Cc1ccc(NS(=O)(=O)c2ccc(Cl)s2)cc1C(=O)N1CCC(c2ccc(C#N)cc2)CC1 [Example 45, 5-chloro-N-[3-[4-(4-cyanophenyl)piperidine-1-carbonyl]-4-methyl-phenyl]thiophene-2-sulfonamide]"
28,79,"Cc1ccc(NS(=O)(=O)c2ccccc2C#N)cc1C(=O)N1CCC(c2ccc(C#N)cc2)CC1 [Example 46, 2-cyano-N-[3-[4-(4-cyanophenyl)piperidine-1-carbonyl]-4-methyl-phenyl]benzenesulfonamide]"
29,85,"Cc1ccc(NS(=O)(=O)c2cccc(C#N)c2)cc1C(=O)N1CCC(c2ccc(C#N)cc2)CC1 [Example 47, 3-cyano-N-[3-[4-(4-cyanophenyl)piperidine-1-carbonyl]-4-methyl-phenyl]benzenesulfonamide]"
30,84,"CC(=O)Nc1ccc(S(=O)(=O)Nc2ccc(C)c(C(=O)N3CCC(c4ccc(C#N)cc4)CC3)c2)cc1 [Example 48, N-[4-[[3-[4-(4-cyanophenyl)piperidine-1-carbonyl]-4-methyl-phenyl]sulfamoyl]phenyl]acetamide]"

row,SMILES,inhibition at 100 µM [%]
1,"CCCCOc1ccc(S(=O)(=O)Nc2cc(C(=O)N3CCC(c4ccc(C#N)cc4)CC3)ccc2C)cc1 [Example 24, 4-butoxy-N-[5-[4-(4-cyanophenyl)piperidine-1-carbonyl]-2-methyl-phenyl]benzenesulfonamide]",83
